These results are taken from the supplement of paper PMC10307832.

Test in all cases: relative viability (nuclei count vs DMSO), 5 days (fraction); higher = more cells survive
Compound in assay [1]: CS(=O)(=O)c1ccc(-c2cnc(N)c(C(=O)Nc3ccccc3)n2)cc1 [VE-821] + O=C(c1cc(Cc2n[nH]c(=O)c3ccccc23)ccc1F)N1CCN(C(=O)C2CC2)CC1 [Olaparib] (partner 8 µM)
The essentials: (§1)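 Medians of duplicate plates are given as relative viability. That measure is the nuclei count in treated wells divided by the count in vehicle wells. Counts were taken on 4× images of lung cancer cell lines in 1536-well plates, 5 days after pin-tool dosing the day after seeding with one drug alone or a fixed anchor-drug dose plus five library-drug doses (not always all listed) in √10 steps.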

Compound in assay [2]: CS(=O)(=O)c1ccc(C(=O)Nc2ccc(Cl)c(-c3ccccn3)c2)c(Cl)c1 [Vismodegib] + COc1cc2c(Oc3ccc(NC(=O)C4(C(=O)Nc5ccc(F)cc5)CC4)cc3F)ccnc2cc1OCCCN1CCOCC1 [Foretinib] (partner 0.25 µM)
Summed up: as §1

Compound in assay [3]: CS(=O)(=O)c1ccc(C(=O)Nc2ccc(Cl)c(-c3ccccn3)c2)c(Cl)c1 [Vismodegib] + CC(=O)c1c(C)c2cnc(Nc3ccc(N4CCNCC4)cn3)nc2n(C2CCCC2)c1=O [Palbociclib] (partner 0.5 µM)
The essentials:
as §1

Compound in assay [4]: N#CC[C@H](C1CCCC1)n1cc(-c2ncnc3[nH]ccc23)cn1 [Ruxolitinib] + Nc1ncn([C@H]2C[C@H](O)[C@@H](CO)O2)c(=O)n1 [Decitabine] (partner 2 µM)
The essentials: as §1

In the case of EBC-1, the relative viability is 0.75 in assay [1] (first compound 0.08 µM); 0.774 in assay [1] (first compound 0.253 µM); 0.74 in assay [1] (first compound 0.8 µM); 0.562 in assay [1] (first compound 2.53 µM); 0.416 in assay [1] (first compound 8 µM); 0.102 in assay [2] (first compound 0.08 µM). Also, the relative viability in assay [2] (first compound 0.253 µM) amounted to 0.102; in assay [2] (first compound 0.8 µM), 0.0802; in assay [2] (first compound 2.53 µM), 0.097; in assay [2] (first compound 8 µM), 0.105.

Turning to HCC-44, the relative viability is 0.939 in assay [1] (first compound 0.08 µM); 0.978 in assay [1] (first compound 0.253 µM); 0.971 in assay [1] (first compound 0.8 µM); 0.986 in assay [1] (first compound 2.53 µM); 0.957 in assay [1] (first compound 8 µM); 1.02 in assay [3] (first compound 0.08 µM). For the same cell line, the relative viability in assay [3] (first compound 0.253 µM) was determined as 0.92; in assay [3] (first compound 0.8 µM) it was 0.911; in assay [3] (first compound 2.53 µM), 0.913; in assay [3] (first compound 8 µM) it was 1.01; in assay [4] (first compound 0.08 µM), 0.931; in assay [4] (first compound 0.253 µM) it was 0.971. In addition, the figures for the relative viability in assay [4] (first compound 0.8 µM), in assay [4] (first compound 2.53 µM) and in assay [4] (first compound 8 µM) were 0.895, 0.877 and 0.83, respectively.

For IA-LM, the relative viability in assay [1] (first compound 0.08 µM) is 0.852; in assay [1] (first compound 0.253 µM), 0.734; in assay [1] (first compound 0.8 µM), 0.832; in assay [1] (first compound 2.53 µM), 0.801; in assay [1] (first compound 8 µM), 0.36; in assay [2] (first compound 0.08 µM), 1.2. Further, the relative viability amounted to 1.15 in assay [2] (first compound 0.253 µM), 1.28 in assay [2] (first compound 0.8 µM), 1.04 in assay [2] (first compound 2.53 µM) and 1.2 in assay [2] (first compound 8 µM).

NCI-H522: the relative viability in assay [1] (first compound 0.08 µM) came out at 0.627; in assay [1] (first compound 0.253 µM), 0.698; in assay [1] (first compound 0.8 µM), 0.645; in assay [1] (first compound 2.53 µM) it was 0.657; in assay [1] (first compound 8 µM), 0.594; in assay [3] (first compound 0.08 µM), 1.16. Further, the relative viability in assay [3] (first compound 0.253 µM) came to 0.985; in assay [3] (first compound 0.8 µM), 0.894; in assay [3] (first compound 2.53 µM), 0.923; in assay [3] (first compound 8 µM), 1.03; in assay [4] (first compound 0.08 µM), 0.694; in assay [4] (first compound 0.253 µM) it was 0.695. Further, the relative viability in assay [4] (first compound 0.8 µM) came to 0.669; in assay [4] (first compound 2.53 µM), 0.701; in assay [4] (first compound 8 µM) it was 0.654.

NCI-H596: the relative viability in assay [1] (first compound 0.08 µM) came to 0.701; in assay [1] (first compound 0.253 µM), 0.714; in assay [1] (first compound 0.8 µM) it was 0.545; in assay [1] (first compound 2.53 µM), 0.555; in assay [1] (first compound 8 µM), 0.527; in assay [2] (first compound 0.08 µM), 0.826. Moreover, the relative viability came to 0.83 in assay [2] (first compound 0.253 µM); 0.463 in assay [2] (first compound 0.8 µM); 0.964 in assay [2] (first compound 2.53 µM); 1 in assay [2] (first compound 8 µM); 0.903 in assay [4] (first compound 0.08 µM); 0.96 in assay [4] (first compound 0.253 µM). For the same cell line, the relative viability in assay [4] (first compound 0.8 µM) is 1.14; in assay [4] (first compound 2.53 µM), 1.04; in assay [4] (first compound 8 µM) it was 1.08.

Regarding NCI-H1299, the relative viability in assay [1] (first compound 0.08 µM) turned out to be 1.04; in assay [1] (first compound 0.253 µM), 1.01; in assay [1] (first compound 0.8 µM), 1.07; in assay [1] (first compound 2.53 µM) it was 0.896; in assay [1] (first compound 8 µM), 0.527; in assay [2] (first compound 0.08 µM), 1.06. In addition, the relative viability came to 1.11 in assay [2] (first compound 0.253 µM), 1.13 in assay [2] (first compound 0.8 µM), 1.07 in assay [2] (first compound 2.53 µM) and 1.09 in assay [2] (first compound 8 µM).

Consider NCI-H1563, for which the relative viability turned out to be 0.895 in assay [2] (first compound 0.08 µM); 1.02 in assay [2] (first compound 0.253 µM); 0.922 in assay [2] (first compound 0.8 µM); 0.936 in assay [2] (first compound 2.53 µM); 1.02 in assay [2] (first compound 8 µM).

NCI-H1623: the relative viability is 0.805 in assay [2] (first compound 0.08 µM); 0.927 in assay [2] (first compound 0.253 µM); 0.914 in assay [2] (first compound 0.8 µM); 0.822 in assay [2] (first compound 2.53 µM); 0.864 in assay [2] (first compound 8 µM).

Turning to NCI-H1648, the relative viability in assay [1] (first compound 0.08 µM) was 1.14; in assay [1] (first compound 0.8 µM), 0.909; in assay [1] (first compound 2.53 µM), 0.922; in assay [1] (first compound 8 µM), 0.468; in assay [3] (first compound 0.08 µM), 0.282; in assay [3] (first compound 0.253 µM), 0.246. Further, the relative viability came to 0.214 in assay [3] (first compound 0.8 µM); 0.274 in assay [3] (first compound 2.53 µM); 0.241 in assay [3] (first compound 8 µM); 0.472 in assay [4] (first compound 0.08 µM); 0.558 in assay [4] (first compound 0.253 µM); 0.588 in assay [4] (first compound 0.8 µM). In addition, the relative viability came out at 0.592 in assay [4] (first compound 2.53 µM) and 0.861 in assay [4] (first compound 8 µM).

On to NCI-H1703, for which the relative viability was 0.417 in assay [1] (first compound 0.08 µM); 0.506 in assay [1] (first compound 0.253 µM); 0.416 in assay [1] (first compound 0.8 µM); 0.462 in assay [1] (first compound 2.53 µM); 0.437 in assay [1] (first compound 8 µM); 0.383 in assay [2] (first compound 0.08 µM). In addition, the relative viability in assay [2] (first compound 0.253 µM) came out at 0.344; in assay [2] (first compound 0.8 µM) it was 0.379; in assay [2] (first compound 2.53 µM), 0.336; in assay [2] (first compound 8 µM) it was 0.316.

As to NCI-H1792, the relative viability in assay [1] (first compound 0.08 µM) is 0.632; in assay [1] (first compound 0.253 µM) it was 0.507; in assay [1] (first compound 0.8 µM), 0.364; in assay [1] (first compound 2.53 µM), 0.417; in assay [1] (first compound 8 µM), 0.201; in assay [3] (first compound 0.08 µM), 0.668. For the same cell line, the relative viability in assay [3] (first compound 0.253 µM) amounted to 0.639; in assay [3] (first compound 0.8 µM), 0.653; in assay [3] (first compound 2.53 µM), 0.644; in assay [3] (first compound 8 µM), 0.673; in assay [4] (first compound 0.08 µM), 0.516; in assay [4] (first compound 0.253 µM), 0.544. Moreover, the relative viability in assay [4] (first compound 0.8 µM) was determined as 0.602; in assay [4] (first compound 2.53 µM) it was 0.425; in assay [4] (first compound 8 µM), 0.476.

Take NCI-H2228: the relative viability in assay [1] (first compound 0.08 µM) turned out to be 0.506; in assay [1] (first compound 0.253 µM), 0.625; in assay [1] (first compound 0.8 µM) it was 0.641; in assay [1] (first compound 2.53 µM), 0.534; in assay [1] (first compound 8 µM) it was 0.222; in assay [2] (first compound 0.08 µM), 0.866. Also, the relative viability in assay [2] (first compound 0.253 µM) came out at 1.02; in assay [2] (first compound 0.8 µM), 0.871; in assay [2] (first compound 2.53 µM), 0.769; in assay [2] (first compound 8 µM) it was 1.01; in assay [3] (first compound 0.08 µM), 0.927; in assay [3] (first compound 0.253 µM), 0.74. Also, the relative viability in assay [3] (first compound 0.8 µM) is 0.761; in assay [3] (first compound 2.53 µM), 0.627; in assay [3] (first compound 8 µM) it was 0.955.
